Assay results taken from patent US9340590B2 (priority 2011, dated 2016).
Where two headings read alike, the source gives them in different places. Positions of bridges follow the written chain, without caps; N, C: chain ends. Non-standard residues stand in square brackets, D forms with d. Residues, ends and D or L forms follow the SMILES beside them. Nva = CCC[C@H](N)C(=O)O; Sar = CNCC(=O)O

Legend:
hNav1.7 = hNav1.7 (Homo sapiens, UniProt Q15858); assay: cell-based
hNav1.5 = hNav1.5 (Homo sapiens, UniProt Q14524); assay: cell-based
Chain of hNav1.5 (Q14524 whole entry, looked up): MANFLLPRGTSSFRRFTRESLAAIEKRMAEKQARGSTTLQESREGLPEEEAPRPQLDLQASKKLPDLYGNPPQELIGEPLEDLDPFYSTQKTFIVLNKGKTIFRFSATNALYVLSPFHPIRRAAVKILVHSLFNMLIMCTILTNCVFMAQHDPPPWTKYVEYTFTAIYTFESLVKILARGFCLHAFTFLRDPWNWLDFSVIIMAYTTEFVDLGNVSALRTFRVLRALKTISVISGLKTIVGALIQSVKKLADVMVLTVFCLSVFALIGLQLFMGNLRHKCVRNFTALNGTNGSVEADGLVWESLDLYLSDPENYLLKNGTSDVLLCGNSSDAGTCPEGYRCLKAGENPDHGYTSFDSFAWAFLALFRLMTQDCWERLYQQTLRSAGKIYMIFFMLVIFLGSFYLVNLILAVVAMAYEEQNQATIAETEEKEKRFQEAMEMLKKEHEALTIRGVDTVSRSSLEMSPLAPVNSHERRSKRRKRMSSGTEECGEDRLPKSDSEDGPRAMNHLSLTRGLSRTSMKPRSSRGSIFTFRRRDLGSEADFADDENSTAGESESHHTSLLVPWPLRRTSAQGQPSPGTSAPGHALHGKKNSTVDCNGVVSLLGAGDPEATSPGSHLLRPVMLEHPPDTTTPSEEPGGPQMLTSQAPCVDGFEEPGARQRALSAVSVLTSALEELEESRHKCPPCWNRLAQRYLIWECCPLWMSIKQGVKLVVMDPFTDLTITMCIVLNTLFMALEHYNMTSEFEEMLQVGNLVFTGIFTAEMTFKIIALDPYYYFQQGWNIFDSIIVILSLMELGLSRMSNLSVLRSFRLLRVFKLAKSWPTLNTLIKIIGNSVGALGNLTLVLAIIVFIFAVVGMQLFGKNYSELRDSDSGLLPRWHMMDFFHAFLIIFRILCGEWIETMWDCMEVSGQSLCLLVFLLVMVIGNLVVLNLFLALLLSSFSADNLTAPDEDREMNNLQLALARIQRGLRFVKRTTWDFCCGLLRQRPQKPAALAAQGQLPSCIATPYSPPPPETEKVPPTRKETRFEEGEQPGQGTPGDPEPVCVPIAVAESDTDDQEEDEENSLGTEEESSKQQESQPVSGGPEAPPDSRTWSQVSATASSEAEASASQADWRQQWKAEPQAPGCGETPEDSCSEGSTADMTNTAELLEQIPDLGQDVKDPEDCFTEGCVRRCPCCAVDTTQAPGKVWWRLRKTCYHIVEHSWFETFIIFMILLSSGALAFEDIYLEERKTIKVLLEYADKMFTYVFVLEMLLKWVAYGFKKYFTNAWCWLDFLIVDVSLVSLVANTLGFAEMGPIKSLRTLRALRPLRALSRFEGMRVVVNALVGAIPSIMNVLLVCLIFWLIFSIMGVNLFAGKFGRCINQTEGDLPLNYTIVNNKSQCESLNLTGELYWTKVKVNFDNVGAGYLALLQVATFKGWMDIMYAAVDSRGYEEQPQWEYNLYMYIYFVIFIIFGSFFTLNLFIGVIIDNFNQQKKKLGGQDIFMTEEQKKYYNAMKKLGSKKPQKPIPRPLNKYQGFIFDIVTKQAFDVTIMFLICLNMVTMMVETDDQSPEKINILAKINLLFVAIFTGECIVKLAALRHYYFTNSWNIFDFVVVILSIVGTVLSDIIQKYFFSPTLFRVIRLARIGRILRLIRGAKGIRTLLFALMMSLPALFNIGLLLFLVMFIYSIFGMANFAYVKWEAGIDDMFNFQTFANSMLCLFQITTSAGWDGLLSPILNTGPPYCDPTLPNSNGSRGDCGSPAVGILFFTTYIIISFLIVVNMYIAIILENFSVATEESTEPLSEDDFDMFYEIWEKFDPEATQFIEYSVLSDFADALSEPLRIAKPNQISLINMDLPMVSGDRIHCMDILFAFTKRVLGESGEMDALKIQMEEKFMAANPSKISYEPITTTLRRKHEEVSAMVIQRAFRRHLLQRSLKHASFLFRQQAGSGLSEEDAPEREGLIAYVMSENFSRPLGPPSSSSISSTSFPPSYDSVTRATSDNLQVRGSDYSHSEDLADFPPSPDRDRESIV

Chain of hNav1.7 (Q15858 whole entry, looked up): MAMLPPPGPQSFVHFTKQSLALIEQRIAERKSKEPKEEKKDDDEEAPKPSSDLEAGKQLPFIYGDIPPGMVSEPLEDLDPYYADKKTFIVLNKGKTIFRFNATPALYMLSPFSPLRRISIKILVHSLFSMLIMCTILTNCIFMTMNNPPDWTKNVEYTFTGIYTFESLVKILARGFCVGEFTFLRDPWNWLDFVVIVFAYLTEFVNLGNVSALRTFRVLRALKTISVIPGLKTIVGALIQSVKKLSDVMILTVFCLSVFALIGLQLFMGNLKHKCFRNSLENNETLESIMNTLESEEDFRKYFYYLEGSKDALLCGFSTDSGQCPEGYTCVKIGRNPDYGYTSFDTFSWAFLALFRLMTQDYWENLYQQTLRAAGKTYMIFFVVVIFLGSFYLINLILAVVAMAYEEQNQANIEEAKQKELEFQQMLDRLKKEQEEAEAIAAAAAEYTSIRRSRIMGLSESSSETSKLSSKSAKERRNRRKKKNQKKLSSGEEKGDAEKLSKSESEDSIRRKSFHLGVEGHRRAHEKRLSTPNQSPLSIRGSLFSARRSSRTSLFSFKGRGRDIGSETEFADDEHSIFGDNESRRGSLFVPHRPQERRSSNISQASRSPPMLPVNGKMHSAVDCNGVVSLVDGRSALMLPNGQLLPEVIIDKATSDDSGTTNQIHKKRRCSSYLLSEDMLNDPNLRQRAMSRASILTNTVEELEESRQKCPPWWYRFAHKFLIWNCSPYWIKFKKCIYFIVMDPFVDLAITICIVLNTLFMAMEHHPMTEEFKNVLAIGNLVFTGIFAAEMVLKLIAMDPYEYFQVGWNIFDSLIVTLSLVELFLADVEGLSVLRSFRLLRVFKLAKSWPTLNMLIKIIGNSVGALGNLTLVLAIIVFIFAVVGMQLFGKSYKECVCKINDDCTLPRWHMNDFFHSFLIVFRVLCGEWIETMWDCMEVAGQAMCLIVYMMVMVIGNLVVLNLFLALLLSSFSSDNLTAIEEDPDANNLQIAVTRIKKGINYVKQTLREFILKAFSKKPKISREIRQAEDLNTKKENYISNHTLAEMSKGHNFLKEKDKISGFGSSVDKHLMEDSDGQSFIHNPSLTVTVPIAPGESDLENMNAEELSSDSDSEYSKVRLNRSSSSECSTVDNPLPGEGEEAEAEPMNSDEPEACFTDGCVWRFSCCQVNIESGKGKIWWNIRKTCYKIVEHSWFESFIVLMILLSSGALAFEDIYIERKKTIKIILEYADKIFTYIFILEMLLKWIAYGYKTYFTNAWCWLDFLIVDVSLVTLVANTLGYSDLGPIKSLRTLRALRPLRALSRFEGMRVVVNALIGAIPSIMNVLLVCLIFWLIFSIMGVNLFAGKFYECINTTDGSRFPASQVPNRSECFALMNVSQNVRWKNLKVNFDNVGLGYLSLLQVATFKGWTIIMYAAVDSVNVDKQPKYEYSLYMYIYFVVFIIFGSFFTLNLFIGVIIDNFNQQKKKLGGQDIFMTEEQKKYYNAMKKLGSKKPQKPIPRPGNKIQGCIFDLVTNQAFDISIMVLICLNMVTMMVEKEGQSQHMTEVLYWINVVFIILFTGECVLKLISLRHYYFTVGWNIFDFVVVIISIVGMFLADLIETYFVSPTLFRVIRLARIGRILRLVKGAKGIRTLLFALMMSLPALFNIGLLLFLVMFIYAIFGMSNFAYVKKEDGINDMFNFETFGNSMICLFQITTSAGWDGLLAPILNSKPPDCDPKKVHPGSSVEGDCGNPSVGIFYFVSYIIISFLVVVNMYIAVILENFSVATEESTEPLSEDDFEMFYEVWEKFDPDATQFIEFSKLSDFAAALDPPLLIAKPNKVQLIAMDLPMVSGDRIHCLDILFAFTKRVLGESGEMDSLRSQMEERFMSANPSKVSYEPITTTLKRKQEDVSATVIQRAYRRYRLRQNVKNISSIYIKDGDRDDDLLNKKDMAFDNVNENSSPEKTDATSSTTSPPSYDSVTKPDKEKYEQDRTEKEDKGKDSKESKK

Row | Compound | IC50 (hNav1.7; Nav1.7 Use IC50) [nM] | IC50 (hNav1.5) [nM] | IC50 (hNav1.7; read-out: Nav1.7 Use IC50) [nM]
1 | CC[C@H](C)[C@@H]1NC(=O)[C@@H]2CSSC[C@@H]3NC(=O)[C@H](C(C)C)NC(=O)[C@H](CC(C)C)NC(=O)[C@H](CC(N)=O)NC(=O)[C@@H]4CCCN4C(=O)[C@H](CCCNC(=N)N)NC(=O)[C@H](CSSC[C@H](NC(=O)[C@@H](N)CC(=O)O)C(=O)N[C@@H](CC(C)C)C(=O)NCC(=O)N(C)[C@@H](CC(C)C)C(=O)N[C@@H](CC(C)C)C(=O)N[C@@H](CCCNC(=N)N)C(=O)N[C@@H](CCCCN)C(=O)N2)NC(=O)[C@H](CSSC[C@@H](C(=O)N[C@@H](CCCCN)C(=O)N[C@@H](Cc2ccc(O)cc2)C(=O)N[C@H](C(=O)N[C@@H](Cc2ccccc2)C(N)=O)C(C)C)NC(=O)[C@H](Cc2c[nH]c4ccccc24)NC(=O)[C@H](CCCCN)NC(=O)[C@H](Cc2c[nH]cn2)NC(=O)[C@H]([C@@H](C)O)NC(=O)[C@H](CCCNC(=N)N)NC(=O)[C@H](CO)NC3=O)NC(=O)[C@H](CCCCN)NC(=O)[C@H](CC(=O)O)NC(=O)[C@H](CC(N)=O)NC(=O)[C@H](CC(=O)O)NC(=O)[C@@H]2CCCN2C1=O [[NMeLeu5;Leu6]GpTx-1(1-34)] | 12 | > 10000 | 
2 | CC[C@H](C)[C@@H]1NC(=O)[C@@H]2CSSC[C@@H]3NC(=O)[C@H](C(C)C)NC(=O)[C@H](CC(C)C)NC(=O)[C@H](CC(N)=O)NC(=O)[C@@H]4CCCN4C(=O)[C@H](CCCNC(=N)N)NC(=O)[C@H](CSSC[C@H](NC(=O)[C@@H](N)CC(=O)O)C(=O)N[C@@H](CC(C)C)C(=O)NCC(=O)N(C)[C@@H](Cc4ccccc4)C(=O)N[C@@H](CC(C)C)C(=O)N[C@@H](CCCNC(=N)N)C(=O)N[C@@H](CCCCN)C(=O)N2)NC(=O)[C@H](CSSC[C@@H](C(=O)N[C@@H](CCCCN)C(=O)N[C@@H](Cc2ccc(O)cc2)C(=O)N[C@H](C(=O)N[C@@H](Cc2ccccc2)C(N)=O)C(C)C)NC(=O)[C@H](Cc2c[nH]c4ccccc24)NC(=O)[C@H](CCCCN)NC(=O)[C@H](Cc2c[nH]cn2)NC(=O)[C@H]([C@@H](C)O)NC(=O)[C@H](CCCNC(=N)N)NC(=O)[C@H](CO)NC3=O)NC(=O)[C@H](CCCCN)NC(=O)[C@H](CC(=O)O)NC(=O)[C@H](CC(N)=O)NC(=O)[C@H](CC(=O)O)NC(=O)[C@@H]2CCCN2C1=O [[NMePhe5;Leu6]GpTx-1(1-34)] | 12 | 11300 | 
3 | CC[C@H](C)[C@@H]1NC(=O)[C@@H]2CSSC[C@@H]3NC(=O)[C@H](C(C)C)NC(=O)[C@H](CC(C)C)NC(=O)[C@H](CC(N)=O)NC(=O)[C@@H]4CCCN4C(=O)[C@H](CCCNC(=N)N)NC(=O)[C@H](CSSC[C@H](NC(=O)[C@@H](N)CC(=O)O)C(=O)N[C@@H](CC(C)C)C(=O)NCC(=O)N(C)[C@@H](Cc4ccccc4)C(=O)N[C@@H](CCSC)C(=O)N[C@@H](CCCNC(=N)N)C(=O)N[C@@H](CCCCN)C(=O)N2)NC(=O)[C@H](CSSC[C@@H](C(=O)N[C@@H](CCCCN)C(=O)N[C@@H](Cc2ccc(O)cc2)C(=O)N[C@H](C(=O)N[C@@H](Cc2ccccc2)C(N)=O)C(C)C)NC(=O)[C@H](Cc2c[nH]c4ccccc24)NC(=O)[C@H](CCCCN)NC(=O)[C@H](Cc2c[nH]cn2)NC(=O)[C@H]([C@@H](C)O)NC(=O)[C@H](CCCNC(=N)N)NC(=O)[C@H](CO)NC3=O)NC(=O)[C@H](CCCCN)NC(=O)[C@H](CC(=O)O)NC(=O)[C@H](CC(N)=O)NC(=O)[C@H](CC(=O)O)NC(=O)[C@@H]2CCCN2C1=O [[NMePhe5]GpTx-1(1-34)] | 18 | > 10000 | 
4 | CC[C@H](C)[C@@H]1NC(=O)[C@@H]2CSSC[C@@H]3NC(=O)[C@H](C(C)C)NC(=O)[C@H](CC(C)C)NC(=O)[C@H](CC(N)=O)NC(=O)[C@@H]4CCCN4C(=O)[C@H](CCCNC(=N)N)NC(=O)[C@H](CSSC[C@H](NC(=O)[C@@H](N)CC(=O)O)C(=O)N[C@@H](CC(C)C)C(=O)NCC(=O)N(C)[C@@H](C(C)C)C(=O)N[C@@H](CC(C)C)C(=O)N[C@@H](CCCNC(=N)N)C(=O)N[C@@H](CCCCN)C(=O)N2)NC(=O)[C@H](CSSC[C@@H](C(=O)N[C@@H](CCCCN)C(=O)N[C@@H](Cc2ccc(O)cc2)C(=O)N[C@H](C(=O)N[C@@H](Cc2ccccc2)C(N)=O)C(C)C)NC(=O)[C@H](Cc2c[nH]c4ccccc24)NC(=O)[C@H](CCCCN)NC(=O)[C@H](Cc2c[nH]cn2)NC(=O)[C@H]([C@@H](C)O)NC(=O)[C@H](CCCNC(=N)N)NC(=O)[C@H](CO)NC3=O)NC(=O)[C@H](CCCCN)NC(=O)[C@H](CC(=O)O)NC(=O)[C@H](CC(N)=O)NC(=O)[C@H](CC(=O)O)NC(=O)[C@@H]2CCCN2C1=O [[NMeVal5;Leu6]GpTx-1(1-34)] | 50 | > 10000 | 
5 | CCC[C@@H]1NC(=O)CNC(=O)[C@H](CC(C)C)NC(=O)[C@@H](NC(=O)[C@@H](N)CC(=O)O)CSSC[C@@H]2NC(=O)[C@@H]3CSSC[C@@H](C(=O)N[C@@H](CCCCN)C(=O)N[C@@H](Cc4ccc(O)cc4)C(=O)N[C@H](C(=O)N[C@@H](Cc4ccccc4)C(N)=O)C(C)C)NC(=O)[C@H](Cc4c[nH]c5ccccc45)NC(=O)[C@H](CCC(=O)O)NC(=O)[C@H](Cc4c[nH]cn4)NC(=O)[C@H]([C@@H](C)O)NC(=O)[C@H](CCCNC(=N)N)NC(=O)[C@H](CO)NC(=O)[C@H](CSSC[C@H](NC(=O)[C@H](CCCCN)NC(=O)[C@H](CCCNC(=N)N)NC(=O)[C@H](CCSC)NC1=O)C(=O)N[C@@H]([C@@H](C)CC)C(=O)N1CCC[C@H]1C(=O)N[C@@H](CC(=O)O)C(=O)N[C@@H](CC(N)=O)C(=O)N[C@@H](CC(=O)O)C(=O)N[C@@H](CCCCN)C(=O)N3)NC(=O)[C@H](C(C)C)NC(=O)[C@H](CC(C)C)NC(=O)[C@H](CC(N)=O)NC(=O)[C@@H]1CCCN1C(=O)[C@H](CCCNC(=N)N)NC2=O [[Nva5;Glu28]GpTx-1(1-34)] (H-DCLG[Nva]MRKCIPDNDKCCRPNLVCSRTHEWCKYVF-NH2; disulfide 2-17, 9-23, 16-30) | 56 | > 10000 | 
6 | CCC[C@@H]1NC(=O)CNC(=O)[C@H](CC(C)C)NC(=O)[C@@H](NC(=O)[C@@H](N)CC(=O)O)CSSC[C@@H]2NC(=O)[C@@H]3CSSC[C@@H](C(=O)N[C@@H](CCCCN)C(=O)N[C@@H](Cc4ccc(O)cc4)C(=O)N[C@H](C(=O)N[C@@H](Cc4ccccc4)C(N)=O)C(C)C)NC(=O)[C@H](Cc4c[nH]c5ccccc45)NC(=O)[C@H](CCC(=O)O)NC(=O)[C@H](Cc4c[nH]cn4)NC(=O)[C@H]([C@@H](C)O)NC(=O)[C@H](CCCNC(=N)N)NC(=O)[C@H](CO)NC(=O)[C@H](CSSC[C@H](NC(=O)[C@H](CCCCN)NC(=O)[C@H](CCCNC(=N)N)NC(=O)[C@H](CC(C)C)NC1=O)C(=O)N[C@@H]([C@@H](C)CC)C(=O)N1CCC[C@H]1C(=O)N[C@@H](CC(=O)O)C(=O)N[C@@H](CC(N)=O)C(=O)N[C@@H](CC(=O)O)C(=O)N[C@@H](CCCCN)C(=O)N3)NC(=O)[C@H](C(C)C)NC(=O)[C@H](CC(C)C)NC(=O)[C@H](CC(N)=O)NC(=O)[C@@H]1CCCN1C(=O)[C@H](CCCNC(=N)N)NC2=O [[Nva5;Leu6;Glu28]GpTx-1(1-34)] (H-DCLG[Nva]LRKCIPDNDKCCRPNLVCSRTHEWCKYVF-NH2; disulfide 2-17, 9-23, 16-30) | 42 | > 10000 | 
7 | CCC[C@@H]1NC(=O)CNC(=O)[C@H](CC(C)C)NC(=O)[C@@H](NC(=O)[C@@H](N)CC(=O)O)CSSC[C@@H]2NC(=O)[C@@H]3CSSC[C@@H](C(=O)N[C@@H](CCCCN)C(=O)N[C@@H](Cc4ccc(O)cc4)C(=O)N[C@H](C(=O)N[C@@H](Cc4ccccc4)C(N)=O)C(C)C)NC(=O)[C@H](Cc4c[nH]c5ccccc45)NC(=O)[C@H](CCCCN)NC(=O)[C@H](Cc4c[nH]cn4)NC(=O)[C@H]([C@@H](C)O)NC(=O)[C@H](CCCNC(=N)N)NC(=O)[C@H](CO)NC(=O)[C@H](CSSC[C@H](NC(=O)[C@H](CCCCN)NC(=O)[C@H](CCCNC(=N)N)NC(=O)[C@H](CC(C)C)NC1=O)C(=O)N[C@@H]([C@@H](C)CC)C(=O)N1CCC[C@H]1C(=O)N[C@@H](CC(=O)O)C(=O)N[C@@H](CC(N)=O)C(=O)N[C@@H](CC(=O)O)C(=O)N[C@@H](CCCCN)C(=O)N3)NC(=O)[C@H](C(C)C)NC(=O)[C@H](CC(C)C)NC(=O)[C@H](CC(N)=O)NC(=O)[C@@H]1CCCN1C(=O)[C@H](CCCNC(=N)N)NC2=O [[Nva5;Leu6]GpTx-1(1-34)] | 83 | > 10000 | 
8 | CC[C@H](C)[C@@H]1NC(=O)[C@@H]2CSSC[C@@H]3NC(=O)[C@H](C(C)C)NC(=O)[C@H](CC(C)C)NC(=O)[C@H](CC(N)=O)NC(=O)[C@@H]4CCCN4C(=O)[C@H](CCCNC(=NC)NC)NC(=O)[C@H](CSSC[C@H](NC(=O)[C@@H](N)CC(=O)O)C(=O)N[C@@H](CC(C)C)C(=O)NCC(=O)N[C@@H](Cc4ccccc4)C(=O)N[C@@H](CCSC)C(=O)N[C@@H](CCCNC(=N)N)C(=O)N[C@@H](CCCCN)C(=O)N2)NC(=O)[C@H](CSSC[C@@H](C(=O)N[C@@H](CCCCN)C(=O)N[C@@H](Cc2ccc(O)cc2)C(=O)N[C@H](C(=O)N[C@@H](Cc2ccccc2)C(N)=O)C(C)C)NC(=O)[C@H](Cc2c[nH]c4ccccc24)NC(=O)[C@H](CCCCN)NC(=O)[C@H](Cc2c[nH]cn2)NC(=O)[C@H]([C@@H](C)O)NC(=O)[C@H](CCCNC(=N)N)NC(=O)[C@H](CO)NC3=O)NC(=O)[C@H](CCCCN)NC(=O)[C@H](CC(=O)O)NC(=O)[C@H](CC(N)=O)NC(=O)[C@H](CC(=O)O)NC(=O)[C@@H]2CCCN2C1=O [[SDMA18]GpTx-1(1-34)] |  | 10000 | 6
9 | CC[C@H](C)[C@@H]1NC(=O)[C@@H]2CSSC[C@@H]3NC(=O)[C@H](C(C)C)NC(=O)[C@H](CC(C)C)NC(=O)[C@H](CC(N)=O)NC(=O)[C@@H]4CCCN4C(=O)[C@H](CCCNC(=N)N)NC(=O)[C@H](CSSC[C@H](NC(=O)[C@@H](N)CC(=O)O)C(=O)N[C@@H](CC(C)C)C(=O)NCC(=O)N(C)CC(=O)N[C@@H](Cc4ccccc4)C(=O)N[C@@H](CCCNC(=N)N)C(=O)N[C@@H](CCCCN)C(=O)N2)NC(=O)[C@H](CSSC[C@@H](C(=O)N[C@@H](CCCCN)C(=O)N[C@@H](Cc2ccc(O)cc2)C(=O)N[C@H](C(=O)N[C@@H](Cc2ccccc2)C(N)=O)C(C)C)NC(=O)[C@H](Cc2c[nH]c4ccccc24)NC(=O)[C@H](CCCCN)NC(=O)[C@H](Cc2c[nH]cn2)NC(=O)[C@H]([C@@H](C)O)NC(=O)[C@H](CCCNC(=N)N)NC(=O)[C@H](CO)NC3=O)NC(=O)[C@H](CCCCN)NC(=O)[C@H](CC(=O)O)NC(=O)[C@H](CC(N)=O)NC(=O)[C@H](CC(=O)O)NC(=O)[C@@H]2CCCN2C1=O [[Sar5;Phe6]GpTx-1(1-34)] (H-DCLG[Sar]FRKCIPDNDKCCRPNLVCSRTHKWCKYVF-NH2; disulfide 2-17, 9-23, 16-30) | 25 | > 10000 | 
